In patent US20260355180A1, “COMPOSITIONS AND METHODS FOR SPLICEOSOME-TARGETED THERAPIES” (Institute for Cancer Research d/b/a The Research Institute …, priority 2022, published 2026):
Entries after “also recorded” stand apart in the source; their conditions may differ.

Experiments:
RPP631 cells in mice = test: Combination therapy with PlaB and αPD-1 in mice, tumor size; format: in vivo; details: PlaB intra-tumorally and αPD-1 intra-peritoneally, days 14, 17, 20, 22; vs IgG or anti-PD1 only; 24 days
Experimental: FIG. 17: Analysis of combination therapy in mouse model using PlaB and αPD-1.
This combination therapy was tested in RPP631 cells in mice. At day 0, the mice were injected with 8×10^6 RPP631 cells. At days 14, 17, 20, and 22, the mice were injected with PlaB or a vehicle intra-tumorally and IgG or αPD-1 intra-peritoneally. The tumors were then measured over 24 days. (FIG. 17).

RPPM631 cells = test: A-RNA and Z-NA accumulation in RPPM631 cells; format: cell-based, mouse; details: 25 nM PLAB
Experimental: Additionally, SF3B1 inhibition was directly compared to SF3B1 knockout in the mouse SCLC cell line RPPM631. RPPM631 cells were treated with 25 nM PLAB and analyzed for their accumulation of Z-NA and A-RNA. […] (FIG. 12) Next, SF3B1-KO RPPM631 cells were generated and analyzed using immunc-fluorescence technique.

MEF ΔZα cells = test: pMLKL western blot / necroptosis, MEF ΔZα; format: cell-based, mouse; details: 2.5 nM PlaB, 18 hours
Experimental: (§1) FIG. 5A-5E: SF3B1 perturbation upregulates A-RNA and Z-nucleic acids in MEFs. (FIG. 5A) 5 nM of PlaB induces A-RNA and Z-Nucleic acids in ΔZBP1 MEF cells. (FIG. 5B) Quantification of A-RNA and Z-Nucleic acids. […] Plots of signal intensity are mean±SEM, two-tailed unpaired Student's t test *p<0.05, ***p<0.001, ****p<0.0001. 18 hours of PlaB treatment for IF, WB and rescue experiments. IF: 5 nM PlaB, WB and rescue experiments: 2.5 nM PlaB.
(§2) Since induction of Z-nAs can result in ZBP1-dependent necroptosis, we analyzed induction of necroptosis in necroptotic competent MEFs using spliceosome inhibition. […] We also determined that MEFs ΔZBP1, WT, and Flag-ZBP1 cells treated with PlaB began dying within 24hours after treatment. With MEF Flag-ZBP1 cells showing only 20% survival after 24 hours (FIG. 16).

H446 SCLC cells [1] = test: Antigen (HLA-ABC) and PD-L1 expression, H446; format: cell-based, human; details: 48 hours of 0.5 nM PlaB
Source text: (§3) FIG. 3A-3D: SF3B1 inhibition induces a potent IFN response and increases expression of IFN-regulated proteins. […] Mean±SEM, two-tailed unpaired Student's t test *p<0.05, **p<0.01, ***p<0.001, ****p<0.0001.
(§4) We also observed that SF3B1 inhibition triggers robust anti-tumor response and upregulates IFN-β, IFN-γ, and IFN-responsive genes by real-time reverse-transcription quantitative polymerase chain reaction (rRT-qPCR) in H446 and H82 cells (FIGS. 3A and 3B). […] These observations indicate that spliceosome inhibition is useful as a targeted therapy for SCLCs.

MEF Flag-ZBP1 cells = test: A-RNA and Z-NA accumulation in MEF Flag-ZBP1; format: cell-based, mouse; details: SF3B1 inhibition
H446 cells = test: MAVS knock out rescue of PlaB-mediated cell death, H446; format: cell-based, human; details: MAVS KO H446; data not shown
Source text: (§5) Currently, ZBP1 and ADAR1 are the only two known proteins harbor Zα and interact with Z-NAs^104-109.

H82 cells = test: MAVS knock out rescue of PlaB-mediated cell death, H82; format: cell-based; details: MAVS KO H82; data not shown
Source text: as §5

MEF ΔZBP1 cells [2] = test: pMLKL western blot / necroptosis, MEF ΔZBP1; format: cell-based, mouse; details: 2.5 nM PlaB, 18 hours
Experimental: as §1, §2

ZBP1-KO RPPM631 cells = test: Viability of ZBP1-KO RPPM631 cells; format: cell-based, mouse; details: PlaB
Source text: Next, we prepared ZBP1-KO RPPM631 cells to determine whether the necroptosis was ZBP-1 dependent.

H446 SCLC cells [3] = test: IFN response by rRT-qPCR, H446; format: cell-based, human; details: dose-dependent
Source text: as §3, §4

SCLC cell lines = test: Western blot of cleaved-PARP, pH2AX, ZBP1 and RIPK1 (FIG. 4C); format: cell-based; details: 48 hours of PlaB
Source text: FIG. 4A-4C: SF3B1 perturbation increases dsRNA and Z-nucleic acid levels in treated cells. […] (FIG. 4B) Quantification of A-RNA and Z-Nucleic acids. (FIG. 4C) Western blot showing induction of cleaved-PARP, pH2AX, and ZBP1, and the reduction of RIPK1 protein levels. Plots of signal intensity are mean±SEM, two-tailed unpaired Student's t test **p<0.01, ****p<0.0001.

H82 SCLC cells [4] = test: IFN response by rRT-qPCR, H82; format: cell-based; details: dose-dependent
Source text: as §3, §4

H446 SCLC cells [5] = test: Cell survival after PlaB treatment, H446; format: cell-based, human
Experimental: (§6) FIG. 2A) SCLC cell lines (H446 and H82) and immortalized fibroblasts (FC1010 and HS68) cell survival curves after 72 hours of PlaB treatment. FIG. 2B) RIPK1 depletion rescues H82 and H446 cell survival after 18 hours of PlaB treatment. FIG. 2C) Western blot showing RIPK1 protein depletion. Mean±SEM, Welch's t test *p<0.05, **p<0.01.
(§7) Cancer deregulates splicing^31,32, and we hypothesized that hyper-proliferative SCLCs are dependent on splicing machineries for increased tumorigenicity^90.

H82 SCLC cells [6] = test: RIPK1 depletion rescue of PlaB cytotoxicity, H82; format: cell-based; details: 18 hours of PlaB, RIPK1 depleted H82
Experimental: as §6, §7

H82 SCLC cells [7] = test: Cell survival after PlaB treatment, H82; format: cell-based
Experimental: as §6, §7

H82 SCLC cells [8] = test: Antigen (HLA-ABC) and PD-L1 expression, H82; format: cell-based; details: 48 hours of 0.5 nM PlaB
Source text: as §3, §4

MEF ΔZBP1 cells [9] = test: Survival of PlaB treated MEF ΔZBP1; format: cell-based, mouse
Experimental: FIG. 16: Analysis of the effect of spliceosome inhibition on necroptosis in WT MEF cells. EV refers to cells treated with an empty vector.
as §2

pTBK1 protein = test: Western blot of pTBK1; format: cell-based
Source text: FIG. 7: Western Blot analysis showing pTBK1 protein depletion.
Based on the publications and our findings, TNF sensing can at least partially rescue spliceosome perturbation mediated cell death.

[10] = nanomolar concentration of PlaB

SMILES: CCC(O)C(C)C1OC1CC(C)C=CC=C(C)C1OC(=O)CC(O)CCC(C)(O)C(OC(C)=O)C=CC1C (stereo not drawn) [PlaB, Pladienolide B]
- tumor size (RPP631 cells in mice): significantly reduced tumor size
- A-RNA accumulation (RPPM631 cells): increase
- Z-NA accumulation (RPPM631 cells): increase
- pMLKL (necroptosis) (MEF ΔZα cells; MEF ΔZα): not triggered
- PlaB-mediated necroptosis (MEF ΔZα cells; MEF ΔZα mutant): avoid PlaB-mediated necroptosis
- PD-L1 expression (H446 SCLC cells [1]): effectively upregulates
- antigen expression (H446 SCLC cells [1]): effectively upregulates
- A-RNA and Z-NA accumulation (MEF Flag-ZBP1 cells): accumulation
- rescue of PlaB-mediated cell death by MAVS knock out (H446 cells): only minimally rescue
- rescue of PlaB-mediated cell death by MAVS knock out (H82 cells): only minimally rescue
- pMLKL (necroptosis) (MEF ΔZBP1 cells [2]): not triggered
- viability (ZBP1-KO RPPM631 cells): only a minor decrease in viability
- IFN response (H446 SCLC cells [3]): induces potent IFN response
- RIPK1 protein level (SCLC cell lines): dropped considerably
- ZBP1 protein (SCLC cell lines): increased; also recorded: slight increase
- cleaved-PARP protein (SCLC cell lines): increased
- pH2AX protein (SCLC cell lines): increased
- IFN response (H82 SCLC cells [4]): induces potent IFN response
- cell survival (H446 SCLC cells [5]; 72 hours of PlaB, H446): drastically reduces cell survival; also recorded: dramatically reduces SCLC cell survival
- sensitivity to SF3B1 inhibition (H446 SCLC cells [5]; [10]): particularly sensitive
- cell survival upon RIPK1 depletion (H82 SCLC cells [6]): rescues
- cell survival (H82 SCLC cells [7]; 72 hours of PlaB, H82): drastically reduces cell survival; also recorded: dramatically reduces SCLC cell survival
- sensitivity to SF3B1 inhibition (H82 SCLC cells [7]; [10]): particularly sensitive
- PD-L1 expression (H82 SCLC cells [8]): effectively upregulates
- antigen expression (H82 SCLC cells [8]): effectively upregulates
- time after treatment at which cells began dying (MEF ΔZBP1 cells [9]): ≤ 24 h
- pTBK1 protein (pTBK1 protein): dramatic reduction
